Our source for the inhibition values is patent US8119633B2, “Substituted sulfonamide compounds” (Gruenenthal GmbH, priority 2007, dated 2012).

For test [1], the target named is T1, bradykinin receptor 1 (B1R) of the rat (Rattus norvegicus, UniProt P97583).
T1 construct: expressed in transfected cells; host or cells: CHO K1 cells
T1 sequence (P97583 1-337): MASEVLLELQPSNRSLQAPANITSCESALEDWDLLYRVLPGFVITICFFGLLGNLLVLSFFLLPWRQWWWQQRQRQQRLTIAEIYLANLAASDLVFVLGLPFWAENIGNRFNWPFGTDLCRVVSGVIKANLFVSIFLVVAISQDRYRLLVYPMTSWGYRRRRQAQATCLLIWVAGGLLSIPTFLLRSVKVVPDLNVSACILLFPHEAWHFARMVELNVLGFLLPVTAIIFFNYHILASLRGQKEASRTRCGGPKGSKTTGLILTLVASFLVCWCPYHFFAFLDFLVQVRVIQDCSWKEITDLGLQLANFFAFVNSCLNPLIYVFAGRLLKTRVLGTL
As to the kind of experiment: Functional study on the bradykinin receptor 1 (B1R), rat: FLIPR Ca2+ influx assay. Type of test: cell-based. An excerpt:
(§1) The agonistic or antagonistic action of substances can be determined on the bradykinin receptor 1 (B1R) of the species human and rat using the following assay. According to this assay, the Ca^2+ influx through the channel is quantified with the aid of a Ca^2+-sensitive dye (Fluo-4 type, Molecular Probes Europe BV, Leiden, Netherlands) using a Fluorescent Imaging Plate Reader (FLIPR, Molecular Devices, Sunnyvale, USA).
(§2) Chinese hamster ovary cells (CHO K1 cells) which have been stably transfected with the human B1R gene (hB1R cells) or with the B1R gene of the rat (rB1R cells) are used. For functional studies, the cells are plated out on black 96-well plates having a clear base (BD Biosciences, Heidelberg, Germany or Greiner, Frickenhausen, Germany) in a density of 20,000-35,000 cells/well. The cells are incubated overnight at 37° C. and with 5% CO2 in culture medium (hB1R cells: Nutrient Mixture Ham's F12, Gibco Invitrogen GmbH, Karlsruhe, Germany or DMEM, Sigma-Aldrich, Taufkirchen, Germany; rB1R cells: D-MEM/F12, Gibco Invitrogen GmbH, Karlsruhe, Germany), with 10 vol. % FBS (fetal bovine serum, Gibco Invitrogen GmbH, Karlsruhe, Germany or PAN Biotech GmbH, Aidenbach, Germany).
(§3) On the following day, the cells are loaded for 60 minutes at 37° C. with 2.13 μM Fluo-4 (Molecular Probes Europe BV, Leiden, Netherlands) in HBSS buffer (Hank's buffered saline solution, Gibco Invitrogen GmbH, Karlsruhe, Germany) with 2.5 mM probenecid (Sigma-Aldrich, Taufkirchen, Germany) and 10 mM HEPES (Sigma-Aldrich, Taufkirchen, Germany). The plates are then washed twice with HBSS buffer, and HBSS buffer additionally containing 0.1% BSA (bovine serum albumin; Sigma-Aldrich, Taufkirchen, Germany), 5.6 mM glucose and 0.05% gelatin (Merck KGaA, Darmstadt, Germany) is added to the plates. After incubation for a further 20 minutes at room temperature, the plates are inserted into the FLIPR for Ca^2+ measurement. Alternatively, washing is carried out with buffer A (15 mM HEPES, 80 mM NaCl, 5 mM KCl, 1.2 mM CaCl2, 0.7 mM MgSO4, 2 g/l glucose, 2.5 mM probenecid) followed by loading with buffer A with added 2.5 μM Fluo-4 and 0.025% Pluronic F127 (Sigma-Aldrich, Taufkirchen, Germany). The cells are then washed twice with buffer A and incubated for 30 minutes at room temperature with buffer A additionally containing 0.05% BSA and 0.05% gelatin and are then inserted into the FLIPR for Ca^2+ measurement.
(§4) The Ca^2+-dependent fluorescence is measured before and after the addition of substances (λex=488 nm, λem=540 nm). Quantification is carried out by measuring the highest fluorescence intensity (FC, fluorescence counts) over time.
(§5) The FLIPR protocol consists of two substance additions. Test substances (10 μM) are first pipetted onto the cells and the Ca^2+ influx is compared with the control (hB1R: Lys-Des-Arg^9-bradykinin>=0.5 nM; rB1R: Des-Arg^9-bradykinin 10 μM). This gives the activation in %, based on the Ca^2+ signal after addition of Lys-Des-Arg^9-bradykinin (>=0.5 nM) or Des-Arg^9-bradykinin (10 μM).
(§6) After 10-20 minutes' incubation, Lys-Des-Arg^9-bradykinin (hB1R) or Des-Arg^9-bradykinin (rB1R) is applied in the concentration of the EC80, and the influx of Ca^2+ is likewise determined.
(§7) Antagonists lead to suppression of the Ca^2+ influx. The % inhibition compared with the maximum achievable inhibition is calculated.
(§8) In order to determine the IC50 value, the substances are added in various concentrations. Duplicate or triplicate determinations (n=2 or n=3) are carried out, and these are repeated in at least one further independent experiment (N>=2).

Test [2] deals with T2, human bradykinin receptor 1 (B1R) (Homo sapiens, UniProt P46663).
T2 construct: expressed in transfected cells; host or cells: CHO K1 cells
T2 sequence (P46663 1-353): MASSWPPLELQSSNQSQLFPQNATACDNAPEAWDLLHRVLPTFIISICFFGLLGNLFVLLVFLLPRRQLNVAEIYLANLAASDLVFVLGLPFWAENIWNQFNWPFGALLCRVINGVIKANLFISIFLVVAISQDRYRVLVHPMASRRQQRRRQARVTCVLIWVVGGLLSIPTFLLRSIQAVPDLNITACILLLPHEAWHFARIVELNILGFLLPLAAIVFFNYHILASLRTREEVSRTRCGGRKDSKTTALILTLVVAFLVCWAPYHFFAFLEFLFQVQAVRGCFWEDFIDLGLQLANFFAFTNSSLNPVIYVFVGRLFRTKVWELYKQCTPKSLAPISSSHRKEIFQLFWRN
Nature of the test: Functional study on the bradykinin receptor 1 (B1R), human: FLIPR Ca2+ influx assay. Type of test: cell-based.
From the text: Functional Study on the Human Bradykinin Receptor 1 (B1R)
as §1, §2, §3, §4, §5, §6, §7, §8

Setting [3] is: test substance 10 μM, CHO K1 cells transfected with rat B1R, Des-Arg9-bradykinin at EC80, Ca2+ influx (Fluo-4, FLIPR), read-out: B1R antagonism, rat [10 μM] % inhibition.
The mark [4] stands for this setting: test substance 10 μM, CHO K1 cells transfected with human B1R, Lys-Des-Arg9-bradykinin at EC80, Ca2+ influx (Fluo-4, FLIPR), read-out: B1R antagonism, human [10 μM] % inhibition.

Read-outs that look alike come from different tables or passages of the source.

One may read the inhibition as the drop in the measured response relative to a control, in per cent. For `CN(C)C(c1ccccc1)C1CCC(NC(=O)c2ccccc2N(C)S(=O)(=O)c2ccc(Cl)c(Cl)c2)CC1` (stereo not shown) [Example 11, 2-[(3,4-dichloro-benzenesulfonyl)-methyl-amino]-N-[4-(dimethylamino-phenylmethyl)-cyclohexyl]-benzamide], the inhibition at 10 µM in test [1] (CHO-K1, read-out: B1R antagonism, rat [10 μM] % inhibition) is 107%; in test [2] (CHO-K1, read-out: B1R antagonism, human [10 μM] % inhibition) it was 85.5%.
Take `COc1ccc(S(=O)(=O)N2CCc3ccccc3C2CC(=O)NC2CCC(C(c3cccc(F)c3)N(C)C)CC2)cc1` (stereo not shown) [Example 13, N-{4-[dimethylamino-(3-fluoro-phenyl)-methyl]-cyclohexyl}-2-[2-(4-methoxybenzenesulfonyl)-1,2,3,4-tetrahydro-isoquinolin-1-yl]-acetamide]: the inhibition at 10 µM was 76% in test [1] (setting [3]) and 64.4% in test [2] (setting [4]).
Turning to `COc1ccc(S(=O)(=O)N2CCc3ccccc3C2CC(=O)NC2CCC(C(c3ccc(F)cc3)N(C)C)CC2)cc1` (stereo not shown) [Example 14, N-{4-[dimethylamino-(4-fluoro-phenyl)-methyl]-cyclohexyl}-2-[2-(4-methoxybenzenesulfonyl)-1,2,3,4-tetrahydro-isoquinolin-1-yl]-acetamide], the inhibition at 10 µM in test [1] (setting [3]) is 75%; in test [2] (setting [4]), 86.9%.
For `COc1ccc(S(=O)(=O)N2CCc3ccccc3C2CC(=O)NC2CCC(C(c3cccs3)N(C)C)CC2)cc1` (stereo not shown) [Example 15, N-[4-(dimethylamino-thiophen-2-yl-methyl)-cyclohexyl]-2-[2-(4-methoxybenzenesulfonyl)-1,2,3,4-tetrahydro-isoquinolin-1-yl]-acetamide] the same measures were 57% and 44.6%.
Regarding `COc1ccc(S(=O)(=O)N2CCc3ccccc3C2CC(=O)NCC2CCC(C(c3cccc(F)c3)N(C)C)CC2)cc1` (stereo not shown) [Example 16, N-{4-[dimethylamino-(3-fluoro-phenyl)-methyl]-cyclohexylmethyl}-2-[2-(4-methoxy-benzenesulfonyl)-1,2,3,4-tetrahydro-isoquinolin-1-yl]-acetamide], the inhibition at 10 µM in test [1] (setting [3]) turned out to be 57%; in test [2] (setting [4]), 35.5%.
For `COc1ccc(S(=O)(=O)N2CCc3ccccc3C2CC(=O)NCC2CCC(C(c3ccccc3)N(C)C)CC2)cc1` (stereo not shown) [Example 17, N-[4-(dimethylamino-phenyl-methyl)-cyclohexylmethyl]-2-[2-(4-methoxybenzenesulfonyl)-1,2,3,4-tetrahydro-isoquinolin-1-yl]-acetamide] the same measures were 41% and 36.6%.
For `COc1ccc(S(=O)(=O)N2CCc3ccccc3C2CC(=O)NCC2CCC(C(CCc3ccccc3)N(C)C)CC2)cc1` (stereo not shown) [Example 18, N-[4-(1-dimethylamino-3-phenyl-propyl)-cyclohexylmethyl]-2-[2-(4-methoxybenzenesulfonyl)-1,2,3,4-tetrahydro-isoquinolin-1-yl]-acetamide] the same measures were 73% and 58.8%.
For `COc1ccc(S(=O)(=O)N2CCc3ccccc3C2CC(=O)NCC2CCC(C(c3ccc(F)cc3)N(C)C)CC2)cc1` (stereo not shown) [Example 19, N-{4-[dimethylamino-(4-fluoro-phenyl)-methyl]-cyclohexylmethyl}-2-[2-(4-methoxy-benzenesulfonyl)-1,2,3,4-tetrahydro-isoquinolin-1-yl]-acetamide], the inhibition at 10 µM in test [1] (setting [3]) turned out to be 41%; in test [2] (setting [4]), 42.7%.
Taken in the same sequence, the figures for `COc1ccc(S(=O)(=O)N2CCc3ccccc3C2CC(=O)NCC2CCC(C(c3ccc(Cl)cc3)N(C)C)CC2)cc1` (stereo not shown) [Example 20, N-{4-[(4-chloro-phenyl)-dimethylamino-methyl]-cyclohexylmethyl}-2-[2-(4-methoxy-benzenesulfonyl)-1,2,3,4-tetrahydro-isoquinolin-1-yl]-acetamide] were 28% and 38.8%.
Regarding `COc1ccc(S(=O)(=O)N2CCc3ccccc3C2CC(=O)NCC2CCC(C(c3cccs3)N(C)C)CC2)cc1` (stereo not shown) [Example 21, N-[4-(dimethylamino-thiophen-2-yl-methyl)-cyclohexylmethyl]-2-[2-(4-methoxybenzenesulfonyl)-1,2,3,4-tetrahydro-isoquinolin-1-yl]-acetamide], the inhibition at 10 µM came to 41% in test [1] (setting [3]) and 52.9% in test [2] (setting [4]).
For `COc1ccc(S(=O)(=O)N2CCc3ccccc3C2CC(=O)NCCC2CCC(C(c3ccc(Cl)cc3)N(C)C)CC2)cc1` (stereo not shown) [Example 22, N-(2-{4-[(4-chloro-phenyl)-dimethylamino-methyl]-cyclohexyl}-ethyl)-2-[2-(4-methoxy-benzenesulfonyl)-1,2,3,4-tetrahydro-isoquinolin-1-yl]-acetamide] the same measures were 34% and 70.3%.
Taken in the same sequence, the figures for `COc1ccc(S(=O)(=O)N2CCc3ccccc3C2CC(=O)NCCC2CCC(C(c3cccc(F)c3)N(C)C)CC2)cc1` (stereo not shown) [Example 23, N-(2-{4-[dimethylamino-(3-fluoro-phenyl)-methyl]-cyclohexyl}-ethyl)-2-[2-(4-methoxy-benzenesulfonyl)-1,2,3,4-tetrahydro-isoquinolin-1-yl]-acetamide] were 57% and 64%.
On to `COc1ccc(S(=O)(=O)N2CCc3ccccc3C2CC(=O)NCCC2CCC(C(c3ccc(F)cc3)N(C)C)CC2)cc1` (stereo not shown) [Example 24, N-(2-{4-[dimethylamino-(4-fluoro-phenyl)-methyl]-cyclohexyl}-ethyl)-2-[2-(4-methoxy-benzenesulfonyl)-1,2,3,4-tetrahydro-isoquinolin-1-yl]-acetamide], for which the figures for the inhibition at 10 µM in test [1] (setting [3]) and in test [2] (setting [4]) were 67% and 82.2%, respectively.
For `COc1ccc(S(=O)(=O)N2CCc3ccccc3C2CC(=O)NCCC2CCC(C(c3cccs3)N(C)C)CC2)cc1` (stereo not shown) [Example 25, N-{2-[4-(dimethylamino-thiophen-2-yl-methyl)-cyclohexyl]-ethyl}-2-[2-(4-methoxy-benzenesulfonyl)-1,2,3,4-tetrahydro-isoquinolin-1-yl]-acetamide] the same measures were 68% and 79.5%.
